From patent US11040981B2, “Pyrrolotriazine compounds and methods of inhibiting TAM kinases” (Syros Pharmaceuticals, Inc., priority 2017, dated 2021)

Assays:
TYRO3 = target: T1, TYRO3 (Homo sapiens, UniProt Q06418); experiment: TR-FRET kinase activity assay, TYRO3; format: biochemical; details: ATP at Km, 60 minutes
T1 sequence (Q06418 41-890): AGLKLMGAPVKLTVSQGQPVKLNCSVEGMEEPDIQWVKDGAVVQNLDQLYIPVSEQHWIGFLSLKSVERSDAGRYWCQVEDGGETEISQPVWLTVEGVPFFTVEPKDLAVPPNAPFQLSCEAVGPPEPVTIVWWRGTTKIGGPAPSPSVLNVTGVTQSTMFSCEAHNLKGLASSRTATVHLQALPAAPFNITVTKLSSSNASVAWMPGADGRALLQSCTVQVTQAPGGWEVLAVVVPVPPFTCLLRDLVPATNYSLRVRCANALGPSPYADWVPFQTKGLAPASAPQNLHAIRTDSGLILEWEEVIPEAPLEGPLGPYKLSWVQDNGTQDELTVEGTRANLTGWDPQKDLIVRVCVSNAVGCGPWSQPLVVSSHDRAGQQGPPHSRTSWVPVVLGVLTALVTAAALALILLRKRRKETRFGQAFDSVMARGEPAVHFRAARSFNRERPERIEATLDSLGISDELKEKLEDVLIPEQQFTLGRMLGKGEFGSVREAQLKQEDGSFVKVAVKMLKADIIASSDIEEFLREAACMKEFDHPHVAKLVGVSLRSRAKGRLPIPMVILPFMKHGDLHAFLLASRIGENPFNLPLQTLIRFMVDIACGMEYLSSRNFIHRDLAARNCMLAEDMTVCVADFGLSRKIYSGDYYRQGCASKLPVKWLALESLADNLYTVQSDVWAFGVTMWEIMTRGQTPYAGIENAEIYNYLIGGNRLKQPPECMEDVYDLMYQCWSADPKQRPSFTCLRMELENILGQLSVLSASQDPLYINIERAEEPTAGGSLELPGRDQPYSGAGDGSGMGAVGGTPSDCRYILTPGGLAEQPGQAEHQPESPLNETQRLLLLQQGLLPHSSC
How it was run: (§1)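 Recombinant human kinases, fluorescent peptide substrate, ATP at Km; 1 h RT, pH 7.5. EDTA-quenched, Eu antibody added, TR-FRET read; IC50 determined.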

MERTK = target: T2, MERTK (Homo sapiens, UniProt Q12866); experiment: TR-FRET kinase activity assay, MERTK; format: biochemical; details: for IC50: TR-FRET activity assay, ATP at Km, 60 minutes, read-out: Mer IC50; for FLT3/Mer ratio (FLT3 IC50/Mer IC50): ratio of Mer to FLT3: FLT3 IC50/Mer IC50
T2 sequence (Q12866 21-999): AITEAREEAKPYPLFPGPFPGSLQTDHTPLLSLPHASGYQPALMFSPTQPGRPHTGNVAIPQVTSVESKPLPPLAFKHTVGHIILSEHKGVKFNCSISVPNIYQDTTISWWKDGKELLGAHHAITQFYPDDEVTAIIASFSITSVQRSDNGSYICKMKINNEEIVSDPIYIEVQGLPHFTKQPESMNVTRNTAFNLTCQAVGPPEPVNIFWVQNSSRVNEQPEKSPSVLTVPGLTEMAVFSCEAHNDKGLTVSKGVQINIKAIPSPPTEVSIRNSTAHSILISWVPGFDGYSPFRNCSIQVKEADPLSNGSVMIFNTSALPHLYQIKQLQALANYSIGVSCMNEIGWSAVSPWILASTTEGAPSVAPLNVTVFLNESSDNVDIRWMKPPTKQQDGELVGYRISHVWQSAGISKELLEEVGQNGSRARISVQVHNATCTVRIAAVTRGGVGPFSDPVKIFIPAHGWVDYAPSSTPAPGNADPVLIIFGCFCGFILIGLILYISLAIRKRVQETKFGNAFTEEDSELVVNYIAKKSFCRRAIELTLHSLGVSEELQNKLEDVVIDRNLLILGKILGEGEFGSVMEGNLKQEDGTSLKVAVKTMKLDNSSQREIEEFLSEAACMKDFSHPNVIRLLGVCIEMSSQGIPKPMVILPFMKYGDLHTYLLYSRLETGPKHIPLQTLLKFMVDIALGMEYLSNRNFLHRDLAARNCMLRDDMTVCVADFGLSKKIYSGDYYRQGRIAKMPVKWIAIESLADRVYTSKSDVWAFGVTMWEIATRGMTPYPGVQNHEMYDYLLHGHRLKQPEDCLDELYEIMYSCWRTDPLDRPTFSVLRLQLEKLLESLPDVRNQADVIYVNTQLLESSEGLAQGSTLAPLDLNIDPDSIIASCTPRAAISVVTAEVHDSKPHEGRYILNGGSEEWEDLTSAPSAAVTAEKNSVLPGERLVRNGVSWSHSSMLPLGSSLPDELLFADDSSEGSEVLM
How it was run: as §1

Structure (SMILES) | IC50 (TYRO3) [nM] | IC50 (MERTK) [nM] | FLT3/Mer ratio (FLT3 IC50/Mer IC50) (MERTK)
COC[C@H](C)Nc1ncc2c(-c3cnccc3C)cc([C@H]3CC[C@H](O)CC3)n2n1 [Compound 168] | 100 to 1000 | ≤ 100 | +++ (“+++” represents a ratio of >100)
COC[C@H](C)Nc1ncc2c(-c3ccc(C#N)c(F)c3)cc([C@H]3CC[C@H](O)CC3)n2n1 [Compound 169] | ≤ 100 | ≤ 100 | +++ (“+++” represents a ratio of >100)
COC[C@H](C)Nc1ncc2c(C3=CC4CCC(C3)N4)cc([C@H]3CC[C@H](O)CC3)n2n1 (stereo partly drawn) [Compound 170] | ≤ 100 | ≤ 100 | +++ (“+++” represents a ratio of >100)
COC[C@H](C)Nc1ncc2c(-c3ccc(C4(C(=O)N5CCOCC5)CC4)cc3)cc([C@H]3CC[C@H](O)CC3)n2n1 [Compound 171] | ≤ 100 | ≤ 100 | ++ (“++” represents a ratio of between 10 and 100)
COCC(C)Nc1ncc2c(-c3ccc(C4(C(=O)N5CCS(=O)(=O)CC5)CC4)cc3)cc(C3CCC(O)CC3)n2n1 (stereo not drawn) [Compound 172] | ≤ 100 | ≤ 100 | ++ (“++” represents a ratio of between 10 and 100)
COC[C@H](C)Nc1ncc2c(-c3ccc(C4(C(=O)O)CC4)cc3)cc([C@H]3CC[C@H](O)CC3)n2n1 [Compound 173] | ≤ 100 | ≤ 100 | +++ (“+++” represents a ratio of >100)
COC[C@H](C)Nc1ncc2c(-c3cnn(CC(=O)NS(C)(=O)=O)c3)cc([C@H]3CC[C@H](O)CC3)n2n1 [Compound 174] | ≤ 100 | ≤ 100 | +++ (“+++” represents a ratio of >100)
COC[C@H](C)N(C)c1ncc2c(-c3ccnc(C)c3)cc([C@H]3CC[C@H](O)CC3)n2n1 [Compound 175, (trans)-4-(2-(((S)-1-methoxypropan-2-yl)(methyl)amino)-5-(2-methylpyridin-4-yl)pyrrolo[2,1-f][1,2,4]triazin-7-yl)cyclohexanol] | 1000 to 10000 | 100 to 1000 | ++ (“++” represents a ratio of between 10 and 100)
COC[C@H](C)N(C)c1ncc2c(-c3ccnc(C)c3)cc([C@H]3CC[C@H](OC)CC3)n2n1 [Compound 176, 7-((trans)-4-methoxycyclohexyl)-N-((S)-1-methoxypropan-2-yl)-N-methyl-5-(2-methylpyridin-4-yl)pyrrolo[2,1-f][1,2,4]triazin-2-amine] | 1000 to 10000 | 1000 to 10000 | + (“+” represents a ratio of >2.0 and <10)
COC[C@H](C)Nc1ncc2c(N3CCCC3=O)cc([C@H]3CC[C@H](O)CC3)n2n1 [Compound 177] | 100 to 1000 | ≤ 100 | +++ (“+++” represents a ratio of >100)
COC[C@H](C)Nc1ncc2c(N3CC4(COC4)CC3=O)cc([C@H]3CC[C@H](O)CC3)n2n1 [Compound 178] | 100 to 1000 | ≤ 100 | +++ (“+++” represents a ratio of >100)
COC[C@H](C)Nc1ncc2c(-c3cccc(CN4CCCC4)c3)cc([C@H]3CC[C@H](O)CC3)n2n1 [Compound 179] | ≤ 100 | ≤ 100 | +++ (“+++” represents a ratio of >100)
COCC(C)Nc1ncc2c(-c3ccc(C(C)N4CCOCC4)cc3)cc(C3CCC(O)CC3)n2n1 (stereo not drawn) [Compound 181] | ≤ 100 | ≤ 100 | ++ (“++” represents a ratio of between 10 and 100)
